Results as given in publication PMC9000575, “Solution Equilibrium Studies on Salicylidene Aminoguanidine Schiff Base Metal Complexes: Impact of the Hybridization with L-Proline on Stability, Redox Activity and Cytotoxicity” (Molecules, 2022).
≈ marks a conversion by molar mass, not a printed value. Marks after values point to notes of the source that are not given here.

How the values were obtained:
[1] = proton dissociation constants by 1H NMR titration; format: physicochemical
Protocol: ^1H NMR spectra recorded for SISC in 30% (v/v) d6-DMSO/H2O (Figure S3) clearly show two deprotonation steps and all the CH protons are sensitive to the changes of the pH. Similarly, the changes in the chemical shifts of the peaks of the aromatic CH and the CH=N protons indicate two steps in the ^1H NMR spectra of Pro-SISC-Me recorded in water (Figure 3a), thus two pKa values were calculated (pK2, pK3 in Table 1). However, this is only true for the major species identified as the E isomer (Figure 3b), while for the other isomer (Z, Figure 3c) only one pKa (7.55 ± 0.02) could be determined. The E and Z geometric isomers are the consequence of the C=N double bond. […] Based on the integrals of the CH=N peaks, the fraction of the E isomer is 86% at pH < 6.5, and it is decreased to 82% reaching pH 11.5; however, the appearance of further minor peaks at pH > 9.8 indicates the presence of other species in low fraction. The same picture is seen when the changes of the CH3 peaks are considered (Figure S4), and only the peak of the CH-COOH proton was sensitive to the first deprotonation process at pH < 3, which confirms that pK1 of Pro-SISC-Me applies to COOH.
The ^1H NMR studies for the ligands were carried out on a Bruker Ultrashield 500 Plus instrument (Billerica, MA, USA). DSS was used as an internal NMR standard and WATERGATE water suppression pulse scheme was used. Spectra were recorded in 10% (v/v) D2O/H2O or in 30% (v/v) DMSO-d6/H2O solvent mixtures in a concentration of 1 mM, respectively, at ionic strength of 0.10 M (KCl).

[2] = tested on: Colo-205 human colon adenocarcinoma cells; test: MTT cytotoxicity test; format: cell-based; settings: Homo sapiens, Colo-205, 72 h
Protocol: (§1) All cell culture reagents were obtained from Sigma-Aldrich and plastic ware from Sarstedt (Nümbrecht, Germany). Human colon Colo-205 (chemo-sensitive) and Colo-320 (doxorubicin-resistant) adenocarcinoma and MRC-5 human embryonal lung fibroblast cell lines were purchased from LGC Promochem, Teddington, UK. The colon adenocarcinoma cells were cultured in Roswell Park Memorial Institute (RPMI) 1640 medium supplemented with 10% heat-inactivated fetal bovine serum, 2 mM L-glutamine, 1 mM sodium pyruvate and 100 mM HEPES. The MRC-5 cell line was cultured in Eagle’s Minimal Essential Medium (EMEM, Sigma-Aldrich, St. Louis, MO, USA) supplemented with a non-essential amino acid (NEAA) mixture (Sigma-Aldrich, St. Louis, MO, USA) a selection of vitamins, 10% heat-inactivated foetal bovine serum (FBS), 2 mM L-glutamine (Sigma-Aldrich, St. Louis, MO, USA), 1 mM Na-pyruvate (Sigma-Aldrich, St. Louis, MO, USA), nystatin (Sigma-Aldrich, St. Louis, MO, USA) and a penicillin-streptomycin mixture (Sigma-Aldrich, St. Louis, MO, USA) in concentrations of 100 U/L and 10 mg/L, respectively. The cells were incubated at 37 °C, in a 5% CO2, 95% air atmosphere. All cell lines were detached with Trypsin-Versene® (EDTA) solution for 5 min at 37 °C.
(§2) The tested compounds were dissolved in 90% (v/v) DMSO/H2O using 8 mM concentration, […] in the final samples the DMSO content was always lower than 1%. Then stock solutions were diluted in complete culture medium, and two-fold serial dilutions of compounds were prepared in 100 μL of the medium, horizontally. The semi-adherent colon adenocarcinoma cells were treated with Trypsin-Versene (EDTA) solution. They were adjusted to a density of 1 × 10^4 cells in 100 μL of RPMI 1640 or EMEM medium and were added to each well, with the exception of the medium control wells. The final volume of the wells containing compounds and cells was 200 μL. The plates containing Colo-205, Colo-320 or MRC-5 cells were incubated at 37 °C for 72 h; at the end of the incubation period, 20 μL of MTT solution (from a stock solution of 5 mg/mL) were added to each well. After incubation at 37 °C for 4 h, 100 μL of SDS solution (10% in 0.01 M HCI) were added to each well, and the plates were further incubated at 37 °C overnight. Cell growth was determined by measuring the optical density (OD) at 540/630 nm with a Multiskan EX plate reader (Thermo Labsystems, Cheshire, WA, USA). Inhibition of the cell growth (expressed as IC50: inhibitory concentration that reduces by 50% the growth of the cells exposed to the tested compounds) was determined from the sigmoid curve where 100 − ((ODsample − ODmedium control)/(ODcell control − ODmedium control)) × 100 values were plotted against the logarithm of compound concentrations. Curves were fitted by GraphPad Prism software (2021, Graphpad Software, San Diego, CA, USA) using the sigmoidal dose–response model (comparing variable and fixed slopes). The IC50 values were obtained from at least three independent experiments.

[3] = tested on: Colo-320 (doxorubicin-resistant) human colon adenocarcinoma cells; test: MTT cytotoxicity test; format: cell-based; settings: Homo sapiens, Colo-320, 72 h
Protocol: as §1, §2

[4] = tested on: MRC-5 human embryonal lung fibroblast cells; test: MTT cytotoxicity test; format: cell-based; settings: Homo sapiens, MRC5, MRC-5, 72 h
Protocol: as §1, §2

[5] = thermodynamic solubility at pH 7.4; format: physicochemical; settings: 10 mM HEPES buffer, aqueous buffer, thermodynamic from solid, pH 7.4, T = 25 °C, read-out: thermodynamic solubility at pH 7.4 (S7.4)
[6] = Pro-SISC-Me, H2O, major species (E isomer)

pK1 (H3L2+) [1, 6]	pK2 (H2L+) [1, 6]	pK3 (HL) [1, 6]	pKa ([1]; water, only one pKa could be determined, read-out: pKa of the minor (Z) isomer)	solubility thermodynamic [5]	pK1 (H2L+) ([1]; SISC, 30% DMSO/H2O)	pK2 (HL) ([1]; SISC, 30% DMSO/H2O)	SMILES	IC50 [2]	IC50 [3]	IC50 [4]
≤2.5 ^c	7.25 ± 0.03 ^c	9.75 ± 0.03 ^c	7.55	~10 mM (≈ 3190 µg/mL)			Cc1cc(C=NNC(=N)N)c(O)c(CN2CCCC2C(=O)O)c1 (centres unmarked) [Pro-SISC-Me]	> 80 µM	> 80 µM	> 80 µM
				~2 mM (≈ 356 µg/mL)	7.68 ± 0.03	10.72 ± 0.03	N=C(N)NN=Cc1ccccc1O [SISC, 2-(2-hydroxybenzylidene)hydrazinecarboximidamide]	> 80 µM	> 80 µM	> 80 µM
